Results on 3 molecules are retold here after patent US20100190686A1, “NOVEL SECRETED PROTEINS OF ADIPOCYTES FOR DIAGNOSTIC PURPOSES” (The University of Georgia Research Foundation, priority 2007, published 2010).

Series [1] deals with rat primary adipocytes. The series can be described thus: Quantitative LC-MS/MS and 2D-LC-MS/MS analysis of the secreted proteome of primary rat adipocytes. Format: cell-based. The text has this:
(§1) Rat Primary cell culture: inguinal and retroperitoneal fat pads were removed aseptically from male Sprague-Dawley rats (Harlan Industries, Indianapolis, Ind.) and primary preadipocytes were isolated as described in detail previously^26,27. After additional washing and centrifugation steps, the preadipocyte pellet was resuspended in plating medium (high glucose DMEM, antibiotics: PS, 10% FBS) and seeded at an average density of 1.35×10^4 cells/cm^2 for inguinal and 1.63×10^3 cells/cm^2 for retroperitoneal on 10 cm dishes for the differentiation. Primary cells were maintained in a humidified atmosphere containing 5% CO2 in air at 37° C. and cultured to confluence, changing the plating medium every 2 days. After 2 days of confluence, referred to as day 0, the medium was replaced with differentiation medium (high glucose DMEM containing antibiotics and 10% FBS, 0.25 mM MIX, 0.1 μM dexamethasone, and 17 nM insulin) and at day 2, an additional 17 nM of insulin was administered with the plating medium for an additional 48 hrs incubation. The cells were maintained in low glucose DMEM containing 10% FBS and treatments (see below) until harvest.
On the designated days (day 4 for 3T3-L1, day 5 for 3T3-F442A, and day 9 for rat primary adipocytes), adipocytes were induced with a combined treatment of low or high glucose containing 10% FBS, with or without insulin (100 nM) and PUGNAc (100 μM, TRC Inc.) according to the experimental conditions described in the results. After 24 hrs incubation, the medium was removed and the cells were washed five times with low or high glucose serum-free DMEM without antibiotics and vitamins and incubated with the last rinse for 15 min. After the final wash was removed, serum-free media supplemented with insulin (1 nM) or PUGNAc (100 μM) was added and cells were incubated for 16 hrs.
After incubation, the conditioned media were harvested with extreme care and then centrifuged once at 1,800 rpm at 4° C. for 7 min. The supernatants were filtered using 1 μm syringe filters (PALL). The samples were then collected in centrifuge tubes and centrifuged again at 30,000×G at 4° C. for 30 min. The samples were then transferred to an equilibrated spin column (Centriprep YM-3, Amicon, Millipore) and buffer-exchanged at 2,800 G and 4° C. into 40 mM ammonium bicarbonate (NH4HCO3) plus 1 mM DTT and concentrated. The concentrated samples were denatured with 1 M urea, reduced with 10 mM DTT for 1 hr at 56° C., carboxyamidomethylated with 55 mM iodoacetamide in the dark for 45 min, and then digested with 5 μg trypsin (Promega) in 40 mM NH4HCO3 overnight at 37° C. After digestion, the peptides were acidified with 200 μl of 1% trifluoroacetic acid (TFA). Desalting was subsequently performed with C18 spin columns (Vydac Silica C18, The Nest Group, Inc.), and the resulting peptides were dried down in a Speed Vac and stored at −20° C. until analyzed. For the subset of samples to be analyzed for N-linked glycosylation, peptides were resuspended in 19 μl ^18O-water and 1 μl of N-glycanase (PNGaseF, Prozyme) and allowed to incubate for 18 hours at 37° C. Peptides were dried back down and resuspended in 50 μl of 40 mM NH4HCO3 with 1 μg of trypsin, to remove any possible C-terminal incorporation of ^18O from residual trypsin activity^28, for 4 hours and then dried down and stored at −20° C. until analyzed.
The peptides were resuspended with 78 μl of mobile phase A (0.1% formic acid, FA, in water) and 2 μl of mobile phase B (80% acetonitrile, ACN, and 0.1% formic acid in water) and filtered with 0.2 μm filters (Nanosep, PALL). The samples were loaded off-line onto a nanospray tapered capillary column/emitter (360×75×15 μm, PicoFrit, New Objective) self-packed with C18 reverse-phase (RP) resin (8.5 cm, Waters) in a Nitrogen pressure bomb for 10 min at 1,000 p.s.i. (˜5 ul load) and then separated via a 160-min linear gradient of increasing mobile phase B at a flow rate of ˜200 nl/min directly into the mass spectrometer. […]

For series [2], the system named is rat primary adipocytes. The experiment in a line: O-GlcNAc levels by Western blot (RL-2 antibody) of whole-cell extracts, rat primary adipocytes. As to conditions: PUGNAc 100 μM vs low glucose (LG), FIG. 1. Format: cell-based.
From the text: as §1, with “harvest. […]” for “harvest.”

For another series, the system named is 3T3-L1 adipocytes. The series can be described thus: O-GlcNAc levels by Western blot (RL-2 antibody) of whole-cell extracts, mouse immortalized adipocytes. It counts as cell-based. Particulars: PUGNAc 100 μM vs low glucose (LG), FIG. 1. The procedure:
3T3s cell lines: 3T3-L1 and -F442A fibroblasts were maintained and differentiated on 10 cm plates essentially as previously described^11,25. Briefly, two days after the cells reached confluence, cells were induced to differentiate with high ([…], 3T3-L1) or low (3T3-F442A) glucose ([…]) DMEM containing 10% fetal bovine serum (3T3-L1) or 10% calf serum (3T3-F442A) via addition of 0.5 mM (115 μg/mL) 3-isobutyl-1-methyxanthine (MIX, Sigma), 1 μM (390 ng/mL) dexamethasone (Sigma), and 175 nM (1 μg/mL) recombinant insulin (human, Roche). After 48 hrs (day 2), the medium was replaced with high (3T3-L1) or low (3T3-F442A) glucose DMEM plus 10% FBS and supplemented with 1 μg/mL insulin for an additional 48 hrs. After 96 hrs (day 4), cells were maintained in appropriate medium depending on the condition being examined.
On the designated days (day 4 for 3T3-L1, day 5 for 3T3-F442A, and day 9 for rat primary adipocytes), adipocytes were induced with a combined treatment of low or high glucose containing 10% FBS, with or without insulin (100 nM) and PUGNAc (100 μM, TRC Inc.) according to the experimental conditions described in the results. After 24 hrs incubation, the medium was removed and the cells were washed five times with low or high glucose serum-free DMEM without antibiotics and vitamins and incubated with the last rinse for 15 min. […]
In general terms: Immunoblotting shows a protein as a band on a membrane.

For the next series, the system named is adipocytes. As to conditions: elevation of O-GlcNAc levels with PUGNAc; previously shown (ref 11); cited from earlier work.
For series [3] the following is noted: type 2 diabetes, randomized controlled trial, cited from earlier work.
Setting [4] is: PUGNAc treatment vs insulin responsive (LG) condition, same direction with HG+insulin, Table 5.

For `CC(=O)N[C@H]1/C(=N/OC(=O)Nc2ccccc2)O[C@H](CO)[C@@H](O)[C@@H]1O` [PUGNAc], in the series with rat primary adipocytes [1] (LG+PUG vs LG (normalized to 1.00), two biological replicates, FIG. 4A), the “secretion of serine protease inhibitor 2C (reconstructed ion chromatogram of a peptide)” value was “upregulation”. Also, the “secretion of tetranectin (reconstructed ion chromatogram of a peptide)” value in the series on rat primary adipocytes [1] (LG+PUG vs LG (normalized to 1.00), two biological replicates, FIG. 4B) is “upregulation”. In addition, the “secretion of cholesterol-binding protein NPC2” value with rat primary adipocytes [1] (PUGNAc treatment vs insulin responsive (LG) condition, both insulin resistance conditions) is on record as “upregulated”. Further, in the series with rat primary adipocytes [1] (setting [4]), the “secretion of GP-39” value is “upregulation”, the secretion of ceruloplasmin result is on record as “upregulation”, the “secretion of fibulin-2” value is “downregulated” and the “secretion of lipoprotein lipase” value is “upregulation”. In the series on rat primary adipocytes [1] (setting [4]), the “secretion of protein-S” value is on record as “upregulation”, the “secretion of slit homolog 3” value is “downregulated” and the secretion of spondin entry is recorded as “upregulation”. Further, in the series with rat primary adipocytes [2], the O-GlcNAc levels entry is on record as “elevate O-GlcNAc levels significantly”. Also, the O-GlcNAc levels result with 3T3-L1 adipocytes is “elevate O-GlcNAc levels significantly”. The “induction of insulin resistance” value with adipocytes was “induces insulin resistance”.

Consider `CN(C)C(=N)N=C(N)N` [metformin], for which the “cumulative incidence of monotherapy failure at 5 years” value in series [3] (5 years) was 21%.

On to `CN(CCOc1ccc(CC2SC(=O)NC2=O)cc1)c1ccccn1` (stereo not drawn) [rosiglitazone], for which the “weight gain and edema” value in series [3] (compared with metformin and glyburide) is “more weight gain and edema”.
